Measured values published in ChEMBL document CHEMBL3044895, “Insecticidal and Antiacetyicholinesterase Activities of Isobutylthioaryl Methanesulfonates” (J Pestic Sci, 1991).

Columns and labels:
Nilaparvata lugens [1] = assay: Insecticidal activity against Nilaparvata lugens (brown planthopper) assessed as mortality at 200 ppm after 2 days by foliar spraying method; assay type: functional; conditions: 48 h
Nephotettix cincticeps [2] = assay: Insecticidal activity against Nephotettix cincticeps Izumi (green rice leafhopper) assessed as mortality at 200 ppm after 6 days by foliar spraying method; assay type: functional; conditions: 144 h
Plutella xylostella = assay: Insecticidal activity against Plutella xylostella (diamondback moth) assessed as mortality at 200 ppm after 2 days by foliar spraying method; assay type: functional; conditions: 48 h
Nephotettix cincticeps [3] = assay: Insecticidal activity against Nephotettix cincticeps Izumi (green rice leafhopper) assessed as mortality at 200 ppm after 2 days by foliar spraying method; assay type: functional; conditions: 48 h
Nilaparvata lugens [4] = assay: Insecticidal activity against Nilaparvata lugens (brown planthopper) assessed as mortality at 200 ppm after 6 days by foliar spraying method; assay type: functional; conditions: 144 h
Culex pipiens = assay: Insecticidal activity against Culex pipiens assessed as mortality at 200 ppm after 2 days by immersion method; assay type: functional; conditions: 48 h
Tetranychus urticae = assay: Acaricidal activity against Tetranychus urticae (two-spotted spider mite) assessed as mortality at 200 ppm after 2 days by leaf dipping method; assay type: functional; conditions: foliar, 48 h
Acetylcholinesterase [5] = molecular target: Acetylcholinesterase (Musca domestica, UniProt Q7YWJ9); assay: Inhibition of Musca domestica (house fly) NAIDM head acetylcholinesterase; conditions: read-out: I50
Acetylcholinesterase (Musca domestica, UniProt Q7YWJ9), sequence (Q7YWJ9 whole entry): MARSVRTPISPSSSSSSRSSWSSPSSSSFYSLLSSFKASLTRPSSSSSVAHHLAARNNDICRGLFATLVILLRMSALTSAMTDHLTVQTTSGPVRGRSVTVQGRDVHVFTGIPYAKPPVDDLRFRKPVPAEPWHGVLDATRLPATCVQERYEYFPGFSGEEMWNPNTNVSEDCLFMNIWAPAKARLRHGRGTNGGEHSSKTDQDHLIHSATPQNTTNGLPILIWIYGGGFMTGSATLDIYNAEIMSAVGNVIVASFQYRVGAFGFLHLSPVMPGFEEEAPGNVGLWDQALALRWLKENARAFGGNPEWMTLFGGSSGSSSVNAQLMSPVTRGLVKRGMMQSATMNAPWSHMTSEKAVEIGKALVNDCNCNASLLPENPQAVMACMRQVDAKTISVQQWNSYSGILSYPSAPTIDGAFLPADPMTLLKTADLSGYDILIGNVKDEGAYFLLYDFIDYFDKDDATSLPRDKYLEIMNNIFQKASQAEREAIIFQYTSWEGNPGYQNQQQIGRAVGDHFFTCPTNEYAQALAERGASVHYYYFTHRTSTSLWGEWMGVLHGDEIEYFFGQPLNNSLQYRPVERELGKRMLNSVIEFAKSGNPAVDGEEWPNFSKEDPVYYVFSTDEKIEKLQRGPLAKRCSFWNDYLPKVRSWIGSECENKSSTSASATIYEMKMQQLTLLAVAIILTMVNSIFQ

Musca domestica = assay: Insecticidal activity against Musca domestica (house fly) NAIDM; assay type: functional
[6] = molecular target: Ace-orthologous acetylcholinesterase (Nephotettix cincticeps, UniProt Q9NJH6); assay: Inhibition of drug-susceptible Nephotettix cincticeps Ageo (green rice leafhopper) acetylcholinesterase; conditions: read-out: I50
Ace-orthologous acetylcholinesterase, sequence (Q9NJH6 whole entry): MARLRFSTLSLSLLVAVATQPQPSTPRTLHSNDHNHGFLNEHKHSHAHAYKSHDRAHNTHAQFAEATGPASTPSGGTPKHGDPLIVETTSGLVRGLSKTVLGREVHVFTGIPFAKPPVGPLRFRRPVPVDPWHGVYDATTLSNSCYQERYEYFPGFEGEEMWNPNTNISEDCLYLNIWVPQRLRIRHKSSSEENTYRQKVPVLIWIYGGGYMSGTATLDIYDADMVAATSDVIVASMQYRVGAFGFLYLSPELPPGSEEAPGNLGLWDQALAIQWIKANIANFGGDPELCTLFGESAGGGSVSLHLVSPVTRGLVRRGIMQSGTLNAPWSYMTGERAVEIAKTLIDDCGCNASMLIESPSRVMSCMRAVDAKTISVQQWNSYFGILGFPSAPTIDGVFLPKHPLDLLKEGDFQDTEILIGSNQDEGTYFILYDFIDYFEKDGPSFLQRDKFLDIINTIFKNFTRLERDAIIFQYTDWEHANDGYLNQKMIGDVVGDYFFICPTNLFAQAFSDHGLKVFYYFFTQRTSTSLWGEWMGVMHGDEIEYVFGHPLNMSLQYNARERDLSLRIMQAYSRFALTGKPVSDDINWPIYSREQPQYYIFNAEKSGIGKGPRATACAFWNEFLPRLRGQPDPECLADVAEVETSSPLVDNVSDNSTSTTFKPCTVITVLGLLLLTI

Acetylcholinesterase [7] = molecular target: T1, Acetylcholinesterase (Bos taurus, UniProt P23795); assay: Inhibition of Bos taurus (bovine) erythrocytes acetylcholinesterase; conditions: read-out: I50
T1 sequence (P23795 whole entry): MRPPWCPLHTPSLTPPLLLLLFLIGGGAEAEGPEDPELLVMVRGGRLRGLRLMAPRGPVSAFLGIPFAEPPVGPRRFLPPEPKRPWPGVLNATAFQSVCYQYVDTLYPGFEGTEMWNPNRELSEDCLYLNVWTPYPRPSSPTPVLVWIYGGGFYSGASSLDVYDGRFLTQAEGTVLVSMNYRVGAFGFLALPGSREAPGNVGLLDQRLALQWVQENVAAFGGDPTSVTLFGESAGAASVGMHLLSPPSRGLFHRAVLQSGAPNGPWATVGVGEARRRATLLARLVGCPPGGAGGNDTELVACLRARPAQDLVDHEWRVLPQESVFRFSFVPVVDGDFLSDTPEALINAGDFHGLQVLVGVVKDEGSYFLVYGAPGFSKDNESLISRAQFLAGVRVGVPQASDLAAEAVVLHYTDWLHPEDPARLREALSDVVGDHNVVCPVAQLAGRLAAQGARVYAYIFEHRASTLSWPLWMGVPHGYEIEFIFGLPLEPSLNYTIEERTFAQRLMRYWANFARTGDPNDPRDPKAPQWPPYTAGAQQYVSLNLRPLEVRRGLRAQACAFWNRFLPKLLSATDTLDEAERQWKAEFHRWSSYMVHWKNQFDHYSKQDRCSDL

Nephotettix cincticeps [8] = assay: Insecticidal activity against drug-susceptible Nephotettix cincticeps Ageo (green rice leafhopper) assessed as mortality after 2 days by foliar spraying method; assay type: functional; conditions: 48 h
[9] = Drug degradation in sorensen buffer assessed as hydrolysis at 3 x 10^-5 M at pH 7.4 after 24 hr; assay type: physicochemical; conditions: read-out: Drug degradation
Nephotettix cincticeps [10] = assay: Insecticidal activity against drug-susceptible Nephotettix cincticeps Ageo (green rice leafhopper) assessed as mortality […] after 2 days by foliar spraying method; assay type: functional; conditions: 48 h
[11] = Lipophilicity, log K of the compound; assay type: physicochemical; conditions: octanol/water
Nephotettix cincticeps [12] = assay: Insecticidal activity against drug-resistant Nephotettix cincticeps Izumi (green rice leafhopper) assessed as mortality […] after 2 days by foliar spraying method; assay type: functional; conditions: 48 h

| SMILES | mortality at 200 ppm (Nilaparvata lugens [1]) [%] | mortality at 200 ppm (Nephotettix cincticeps [2]) [%] | mortality at 200 ppm (Plutella xylostella) [%] | mortality at 200 ppm (Nephotettix cincticeps [3]) [%] | mortality at 200 ppm (Nilaparvata lugens [4]) [%] | mortality at 200 ppm (Culex pipiens) [%] | mortality at 200 ppm (Tetranychus urticae) [%] | IC50 (Acetylcholinesterase [5]) [µM] | LD50 (Musca domestica) [µg] | IC50 [6] [µM] | IC50 (Acetylcholinesterase [7]) [µM] | LD50 (Nephotettix cincticeps [8]) [mg/kg] | degraded at 24 h, 30 µM [9] [%] | LD50 (Nephotettix cincticeps [10]) [mg/kg] | log K [11] | LD50 (Nephotettix cincticeps [12]) [mg/kg] |
| --- | --- | --- | --- | --- | --- | --- | --- | --- | --- | --- | --- | --- | --- | --- | --- | --- |
| CC(C)CSc1nc(OS(C)(=O)=O)cc2ccccc12 | 0 | 60 | 0 | 30 | 60 | 40 | < 10 | – | – | – | – | – | – | – | – | – |
| CC(C)C[S+]([O-])c1cccc(OS(C)(=O)=O)c1 (stereo unspecified) [3-(ISOBUTYLSULFINYL)PHENYL METHANESULFONATE] | – | – | – | – | – | – | – | 12 | 1.46 | 0.002 | 0.56 | 3.18 | – | – | – | – |
| CC(C)CSc1ccc(OS(C)(=O)=O)nn1 [6-(ISOBUTYLTHIO)PYRIDAZIN-3-YL METHANESULFONATE] | 0 | 0 | 0 | 0 | 0 | 0 | < 10 | – | – | – | – | – | – | – | – | – |
| CC(C)CSc1cccc(OS(C)(=O)=O)n1 [6-(ISOBUTYLTHIO)PYRIDIN-2-YL METHANESULFONATE] | 100 | – | 0 | 100 | – | 100 | 72 | 1300 | 1.11 | 2000 | 2000 | 1.06 | 1.8 | 1.8 | 0.4 | 2.9 |
| CNC(=O)Oc1cccc2ccccc12 [CARBARIL] | – | – | – | – | – | – | – | 0.2 | – | 0.029 | – | – | – | – | – | – |
| CC(C)CSc1cc2ccccc2c(OS(C)(=O)=O)n1 [3-(ISOBUTYLTHIO)ISOQUINOLIN-1-YL METHANESULFONATE] | 0 | 80 | 0 | 20 | 10 | 50 | < 10 | – | – | – | – | – | – | – | – | – |
| CCC(C)c1ccccc1OC(=O)NC (stereo unspecified) [FENOBUCARB] | – | – | – | – | – | – | – | 1.4 | 1.44 | 0.18 | 12 | 11.8 | – | – | – | – |
| CC(C)CS(=O)(=O)c1cccc(OS(C)(=O)=O)n1 | – | – | – | – | – | – | – | 0.15 | 16 | 0.0057 | 0.9 | 1.15 | – | – | – | – |
| CC(C)CSc1nccc(OS(C)(=O)=O)n1 | 20 | 30 | 0 | 20 | 20 | 0 | < 10 | – | – | – | – | – | 88.8 | > 100 | 0.18 | > 100 |
| CC(C)CSc1cc(OS(C)(=O)=O)ccn1 | 70 | 70 | 70 | 30 | 100 | 100 | < 10 | – | – | – | – | – | 5.9 | 5.4 | 0.379 | 66.4 |
| CC(C)CSc1cccnc1OS(C)(=O)=O [3-(ISOBUTYLTHIO)PYRIDIN-2-YL METHANESULFONATE] | 50 | 100 | 0 | 40 | 90 | 30 | < 10 | – | – | – | – | – | – | – | – | – |
| CC(C)CSc1cc(OS(C)(=O)=O)ncn1 [6-(ISOBUTYLTHIO)PYRIMIDIN-4-YL METHANESULFONATE] | 80 | 0 | 0 | 0 | 100 | 0 | < 10 | – | – | – | – | – | 100 | > 100 | 0.391 | > 100 |
| CC(C)CSc1cccc(OS(C)(=O)=O)c1 [3-(ISOBUTYLTHIO)PHENYL METHANESULFONATE] | 100 | – | 0 | 100 | – | 100 | < 10 | – | – | – | – | – | 2.6 | 10.8 | 0.541 | 26.1 |
| CC(C)CSc1ccnc(OS(C)(=O)=O)c1 [4-(ISOBUTYLTHIO)PYRIDIN-2-YL METHANESULFONATE] | 100 | – | 0 | 100 | – | 100 | < 10 | – | – | – | – | – | 4.5 | 2.3 | 0.324 | 2.8 |
| CC(C)CSc1cncc(OS(C)(=O)=O)c1 [5-(ISOBUTYLTHIO)PYRIDIN-3-YL METHANESULFONATE] | 100 | – | 0 | 100 | – | 100 | < 10 | – | – | – | – | – | 3.8 | 1.9 | 0.258 | 3.7 |
| CC(C)CSc1ccc(OS(C)(=O)=O)nc1 [5-(ISOBUTYLTHIO)PYRIDIN-2-YL METHANESULFONATE] | 100 | 10 | 0 | 0 | – | 10 | < 10 | – | – | – | – | – | – | – | – | – |
| CC(C)CS(=O)(=O)c1nc(OS(C)(=O)=O)cs1 | – | – | – | – | – | – | – | 0.00098 | >100 | 0.0019 | 1.4 | 0.52 | – | – | – | – |
| CC(C)CS(=O)(=O)c1ccnc(OS(C)(=O)=O)c1 [4-(ISOBUTYLSULFONYL)PYRIDIN-2-YL METHANESULFONATE] | – | – | – | – | – | – | – | 1.9 | 0.33 | 0.026 | 0.8 | 0.72 | – | – | – | – |
| CC(C)CSc1nc(OS(C)(=O)=O)cs1 | 100 | – | 0 | 100 | – | 100 | < 10 | 2200 | 3.9 | 58 | 31 | 14.9 | 9.8 | 8.2 | 0.316 | 11.1 |
| CC(C)CSc1cncc(OS(C)(=O)=O)n1 [6-(ISOBUTYLTHIO)PYRAZIN-2-YL METHANESULFONATE] | 100 | 70 | 0 | 50 | – | 100 | < 10 | – | – | – | – | – | 36.6 | 4.6 | 0.32 | 40.1 |
| CC(C)CSc1nnc(OS(C)(=O)=O)s1 [5-(ISOBUTYLTHIO)-1,3,4-THIADIAZOL-2-YL METHANESULFONATE] | 0 | 0 | 70 | 0 | 20 | 0 | < 10 | – | – | – | – | – | – | – | – | – |
| CC(C)CS(=O)(=O)c1cccc(OS(C)(=O)=O)c1 [3-(ISOBUTYLSULFONYL)PHENYL METHANESULFONATE] | – | – | – | – | – | – | – | 0.37 | >100 | 0.046 | 1 | 13 | – | – | – | – |
